Reference: the supplement of paper PMC9663587

Key:
YKL-5-124 = compound: C=CC(=O)Nc1ccc(C(=O)Nc2[nH]nc3c2CN(C(=O)N[C@H](CN(C)C)c2ccccc2)C3(C)C)cc1 [YKL-5-124]; experiment: GR value, 72 h; higher = faster growth (1 = untreated, <0 = killing);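 also: breast cancer and non-malignant breast epithelial lines, nine half-log doses, viable cells counted by Hoechst and LIVE/DEAD dye imaging versus time-zero plates and DMSO controls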
[1] = compound: CCc1cnn2c(NCc3ccc[n+]([O-])c3)cc(N3CCCC[C@H]3CCO)nc12; experiment: as above
LEE011/Ribociclib = compound: CN(C)C(=O)c1cc2cnc(Nc3ccc(N4CCNCC4)cn3)nc2n1C1CCCC1 [LEE011/Ribociclib]; experiment: as above
BSJ-03-123 = compound: CC(=O)c1c(C)c2cnc(Nc3ccc(N4CCN(CCOCCOCCOCCNC(=O)COc5cccc6c5C(=O)N(C5CCC(=O)NC5=O)C6=O)CC4)cn3)nc2n(C2CCCC2)c1=O [BSJ-03-123]; experiment: as above
THZ1 = compound: CN(C)C/C=C/C(=O)Nc1ccc(C(=O)Nc2cccc(Nc3ncc(Cl)c(-c4c[nH]c5ccccc45)n3)c2)cc1 [THZ1]; experiment: as above
[2] = compound: CCN1CCN(Cc2ccc(Nc3ncc(F)c(-c4cc(F)c5nc(C)n(C(C)C)c5c4)n3)nc2)CC1; experiment: as above
THZ531 [3] = compound: T1, CN(C)C/C=C/C(=O)Nc1ccc(C(=O)N2CCC[C@@H](Nc3ncc(Cl)c(-c4c[nH]c5ccccc45)n3)C2)cc1 [THZ531]; experiment: as above
[4] = compound: CC(=O)c1c(C)c2cnc(Nc3ccc(N4CCNCC4)cn3)nc2n(C2CCCC2)c1=O; experiment: as above
Rucaparib = compound: CNCc1ccc(-c2[nH]c3cc(F)cc4c3c2CCNC4=O)cc1 [Rucaparib]
BSJ-01-175 = compound: CN(C)C/C=C/C(=O)Nc1ccc(O[C@@H]2CCC[C@@H](Nc3ncc(Cl)c(-c4c[nH]c5ccccc45)n3)C2)cc1 [BSJ-01-175]
Tivantinib/ARQ197 = compound: O=C1NC(=O)[C@@H](c2cn3c4c(cccc24)CCC3)[C@@H]1c1c[nH]c2ccccc12 [Tivantinib/ARQ197]
Pictilisib/GDC0941 = compound: CS(=O)(=O)N1CCN(Cc2cc3nc(-c4cccc5[nH]ncc45)nc(N4CCOCC4)c3s2)CC1 [Pictilisib/GDC0941]
senexin b = compound: CN1CCN(C(=O)c2ccc3cc(CCNc4ncnc5ccc(C#N)cc45)ccc3c2)CC1 [senexin b]
Ceritinib/LDK378 = compound: Cc1cc(Nc2ncc(Cl)c(Nc3ccccc3S(=O)(=O)C(C)C)n2)c(OC(C)C)cc1C1CCNCC1 [Ceritinib/LDK378]
AZD6738 = compound: C[C@@H]1COCCN1c1cc(C2([S@](C)(=N)=O)CC2)nc(-c2cc[nH]c3nccc2-3)n1 [AZD6738]
Paclitaxel = compound: CC(=O)O[C@H]1C(=O)[C@@]2(C)[C@H]([C@H](OC(=O)c3ccccc3)[C@]3(O)C[C@H](OC(=O)[C@H](O)[C@@H](NC(=O)c4ccccc4)c4ccccc4)C(C)=C1C3(C)C)[C@]1(OC(C)=O)CO[C@@H]1C[C@@H]2O [Paclitaxel]
THZ531 [5] = compound: T1, THZ531
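For GR50, 72 h in this document: breast cancer and non-malignant breast epithelial cell lines, Deep Dye Drop or Dye Drop imaging, nine half-log doses, GR normalized to time-zero plates and DMSO-only controls.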

HCC1187
GR value (YKL-5-124; 0.001 µM): 0.478 GR
GR value (YKL-5-124; 0.003162 µM): 0.459 GR
GR value (YKL-5-124; 0.01 µM): 0.209 GR
GR value (YKL-5-124; 0.03162 µM): 0.309 GR
GR value (YKL-5-124; 0.1 µM): 0.195 GR
GR value (YKL-5-124; 0.3162 µM): 0.222 GR
GR value (YKL-5-124; 1 µM): 0.0281 GR
GR value (YKL-5-124; 3.162 µM): -0.0235 GR
GR value (YKL-5-124; 10 µM): -0.529 GR
GR value ([1]; 0.0001 µM): 0.988 GR
GR value ([1]; 0.0003162 µM): 1 GR
GR value ([1]; 0.001 µM): 1.08 GR
GR value ([1]; 0.003162 µM): 0.985 GR
GR value ([1]; 0.01 µM): 0.471 GR
GR value ([1]; 0.03162 µM): -0.689 GR
GR value ([1]; 0.1 µM): -0.797 GR
GR value ([1]; 0.3162 µM): -0.791 GR
GR value ([1]; 1 µM): -0.761 GR
GR value (LEE011/Ribociclib; 0.001 µM): 1.01 GR
GR value (LEE011/Ribociclib; 0.003162 µM): 0.914 GR
GR value (LEE011/Ribociclib; 0.01 µM): 0.863 GR
GR value (LEE011/Ribociclib; 0.03162 µM): 1.02 GR
GR value (LEE011/Ribociclib; 0.1 µM): 0.922 GR
GR value (LEE011/Ribociclib; 0.3162 µM): 0.984 GR
GR value (LEE011/Ribociclib; 1 µM): 0.933 GR
GR value (LEE011/Ribociclib; 3.162 µM): 0.963 GR
GR value (LEE011/Ribociclib; 10 µM): 0.933 GR
GR value (BSJ-03-123; 0.001 µM): 0.987 GR
GR value (BSJ-03-123; 0.003162 µM): 0.865 GR
GR value (BSJ-03-123; 0.01 µM): 0.969 GR
GR value (BSJ-03-123; 0.03162 µM): 0.935 GR
GR value (BSJ-03-123; 0.1 µM): 0.956 GR
GR value (BSJ-03-123; 0.3162 µM): 0.882 GR
GR value (BSJ-03-123; 1 µM): 0.743 GR
GR value (BSJ-03-123; 3.162 µM): 0.621 GR
GR value (BSJ-03-123; 10 µM): -0.43 GR
GR value (THZ1; 0.0001 µM): 0.932 GR
GR value (THZ1; 0.0003162 µM): 1.51 GR
GR value (THZ1; 0.001 µM): 0.963 GR
GR value (THZ1; 0.003162 µM): 0.885 GR
GR value (THZ1; 0.01 µM): 0.645 GR
GR value (THZ1; 0.03162 µM): 0.0807 GR
GR value (THZ1; 0.1 µM): -0.731 GR
GR value (THZ1; 0.3162 µM): -0.852 GR
GR value (THZ1; 1 µM): -0.8 GR
GR value ([2]; 0.001 µM): 0.974 GR
GR value ([2]; 0.003162 µM): 0.907 GR
GR value ([2]; 0.01 µM): 0.898 GR
GR value ([2]; 0.03162 µM): 0.971 GR
GR value ([2]; 0.1 µM): 1.01 GR
GR value ([2]; 0.3162 µM): 1 GR
GR value ([2]; 1 µM): 0.849 GR
GR value ([2]; 3.162 µM): 0.69 GR
GR value ([2]; 10 µM): 0.297 GR
GR value (THZ531 [3]; 0.0001 µM): 0.932 GR
GR value (THZ531 [3]; 0.0003162 µM): 1.02 GR
GR value (THZ531 [3]; 0.001 µM): 0.99 GR
GR value (THZ531 [3]; 0.003162 µM): 1.04 GR
GR value (THZ531 [3]; 0.01 µM): 0.976 GR
GR value (THZ531 [3]; 0.03162 µM): 0.879 GR
GR value (THZ531 [3]; 0.1 µM): -0.437 GR
GR value (THZ531 [3]; 0.3162 µM): -0.852 GR
GR value ([4]; 0.0003162 µM): 0.999 GR
GR value ([4]; 0.001 µM): 1.05 GR
GR value ([4]; 0.003162 µM): 1.04 GR
GR value ([4]; 0.01 µM): 0.985 GR
GR value ([4]; 0.03162 µM): 1.05 GR
GR value ([4]; 0.1 µM): 1.09 GR
GR value ([4]; 0.3162 µM): 1.02 GR
GR value ([4]; 1 µM): 1.09 GR
GR value ([4]; 3.162 µM): 0.993 GR
GR50, 72 h (Rucaparib): > 10 µM
GR50, 72 h (BSJ-01-175): 0.00928 µM
GR50, 72 h (Tivantinib/ARQ197): 0.0418 µM
GR50, 72 h (Pictilisib/GDC0941): 0.571 µM
GR50, 72 h (senexin b): > 10 µM
GR50, 72 h (Ceritinib/LDK378): 1.49 µM
GR50, 72 h (AZD6738): 1.21 µM
GR50, 72 h (Paclitaxel): 0.000215 µM
GR50, 72 h (THZ531 [5]): 0.0529 µM
